Source: patent US20190298717A1 (BOARD OF REGENTS, THE UNIVERSITY OF TEXAS SYSTEM, priority 2016, published 2019)
“Also recorded” adds a separate entry of the source.

Legend:
[1] = tested on: HEK293 tau aggregate-negative and aggregate-positive cells
Procedure: The inventors first measured the cell proliferation to evaluate the stress caused by expression of tau fibrils in aggregate-positive and negative cells (FIG. 6A). […] The inventors also measured the concentration of superoxide ions (O2-), a detrimental byproduct of oxidative phosphorylation, as an ROS representative. […] The inventors next measured expression of Nrf2 and HO-1 in the same cells (FIG. 6C). […] Aggregate-positive and -negative KD cells were treated with 200 μM H2O2 for 24 h. Cytotoxicity was measured as release of LDH.
Measurement of Reactive Oxygen Species. Superoxide concentration was measured by dihydroethidium (DHE). Black clear bottom 96 well plates were seeded with about 5000 HEK293 tau aggregate-negative (control) and aggregate-positive model cells per well and about 20000 SH-SY5Y cells (the NRF2 knockdown of both cell lines were also seeded). […] Fluorescence was measured by Spectramax Gemini XPS plate reader (Molecular Devices, Sunnyvale, Calif.) at 370 nm excitation and 420 nm emission wavelengths. […] Equal number of animals were transferred to a black bottom 96 well plate and fluorescence was measured same as above.

[2] = tested on: MEF cells; details: 10 μM, 24 and 48 hours
Procedure: Cells were then subjected to confocal analysis and mRFP-GFP (yellow representing autophagosome) and mRFP (red puncta representing autophagolysosomes) were recorded; scale bar, 10 gtm. […] The co-localization of mRFP with GFP signal from tfLC3 puncta was measured using ImageJ software.
To further validate the present invention autophagic flux using mRFP-GFP tandem fluorescent-tagged LC3 (tfLC3) was measured. tfLC3 protein is one of the most widely used markers for the detection of autophagosomes and autophagolysosomes, two key structures in macroautophagy (8). tfLC3 was knocked-in to monitor autophagic flux in MEF cells based on different pH stabilities of GFP and mRFP (9). In autophagosome environment both mRFP and GFP tags of tfLC3 can fluoresce so autophagosome appear as yellow puncta (green GFP+red mRFP). […] Rapamycin was used as a positive control.

[3] = tested on: HeLa cells expressing EGFP-HD103Q; details: 48 hours
From the text: The fraction of EGFP-positive cells expressing aggregates under different conditions were plotted as odds ratios taking Ctrl value as 1. Error bars show 95% confidence interval. […] Error bars show SD.

[4] = tested on: Nrf2 transcriptional activity (ARE)
Procedure: Trx1 reduces the cysteine residues critical for binding of Nrf2 to AREs (Hansen et al., 2004).
Nrf2 Transcriptional Activity Assay. The transcriptional activity of Nrf2 was determined using a luciferase-based transcription activation approach. A vector carrying a […] controlled luciferase gene (firefly luciferase) and a vector carrying the control luciferase (Renilla luciferase) from an ARE reporter kit (BPS Bioscience, San Diego, Calif.) was transiently co-transfected into the cells using Lipofectamine reagents (Thermo Fisher, Waltham, Mass.). […] Briefly, the cells were incubated with firefly luciferase substrate for 10 minutes prior to measurement luminescence in a 96-well luminescence plate reader. Subsequently, the Renilla luciferase was measured after the addition of Dual-Glo Stop & Glo reagent into the wells with a 10-minute incubation. The ratio of luminescence from firefly and Renilla was calculated to normalize and compare the Nrf2 transcriptional activity.

[5] = tested on: SKN-1/Nrf2-stress response pathway; details: in vivo
Procedure: Treated and untreated populations, four biological replicates each, were then lysed, digested and analyzed by shotgun mass spectrometry for label-free quantification. […] An IPA analysis was performed using proteins with human orthologs.
Worms were lysed in 8M urea, 5% 1 M Tris-HCl pH 8.0 and 1× protease inhibitor cocktail EDTA-free (Thermo Fisher, Waltham Mass.) buffer with the aid of sonication. Lysates were centrifuged at 14000 g for 15 min at 4° C. and proteins in the supernatant were precipitated using cold acetone. Disulfide bonds were reduced and alkylated (by DTT and IAA respectively) before diluting the solution to 1.8 M with 25 mM TRIS-HCL pH 8.0. Proteins were digested overnight at 37° C. with trypsin (Promega, Fitchburg Wis.) in presence of 1 mM CaCl2. Peptides were acidified with TFA and purified using Oasis HLB plates (Waters, UK). A Dionex Ultimate 3000 UHPLC (Thermo) was coupled to an Orbitrap Fusion Lumos mass spectrometer for the separation and analysis of tryptic peptides. […]
LC-MS/MS raw data files were processed using the latest available MaxQuant software (v.1.5.3.30). […] The p-values for all the statistical analysis were calculated using a two-tailed student t-test as used for normally distributed data (we pre-processed intensities by binary logarithm).

[6] = tested on: PC12 cells expressing EGFP-HDQ74
Procedure: Transgene expression was induced with doxycycline for 8 hours, and then switched off (by removing doxycycline). […] The fraction of EGFP-positive cells expressing aggregates under different conditions were plotted as odds ratios taking Ctrl value as 1. Error bars show 95% confidence interval. […] The fraction of EGFP-positive cells with aggregates were plotted as odds ratios taking Ctrl value as 1. Error bars show 95% confidence interval. […] Rapamycin ([…]) was used as positive control. Right panel is densitometry analysis of EGFP-HDQ74 level normalized to actin. Error bars show SD. […] The fraction of EGFP-positive cells expressing aggregates were plotted as odds ratios taking Ctrl value as 1. Error bars show 95% confidence interval.
To investigate the clearance of HDQ74 (74 repeats of poly Q), the inventors used a stable doxycycline-inducible PC12 cell line expressing EGFP-tagged HDQ74 in which transgene expression were induced by doxycycline addition to the cell media and switched off by doxycycline removal. […] Rapamycin, a known autophagy inducer, was used as positive controls.

[7] = tested on: SH-SY5Y cells; details: 72 hours
Procedure: Mitochondrial mass was measured by staining the cells with Mito tracker deep red followed by flow cytometric analysis. […] DNA copy number of mitochondria was calculated by amplification of ND5 or m-RNR, as mitochondrial genes, relative to LPL as a nucleus specific DNA sequence. Relative expression values were normalized to untreated cells.
Several parameters directly linked to intact mitochondria itself, namely mitochondrial mass, mtDNA copy number (as representatives of mitochondrial biogenesis), mitochondrial membrane potential (reporter of mitochondrial function) and ATP level as a signature of energetics (FIGS. 11A to 11E) were measured. […] Isoniazid (20 μM) and resveratrol (20 μM) were used as negative and positive controls respectively). Mitochondrial mass was also evaluated in parallel by measuring the relative amount of mitochondrial to nuclear DNA. Two different set of primers (ND5 and m-RNR) were used to amplify mt-DNA in qPCR reactions (FIG. 11B).
The mitochondrial membrane potential was measured as an indicator of cellular energetics and ATP content.

[8] = tested on: neuropeptide Y, synaptotagmin; details: data not shown
From the text: Neuronal plasticity, defined as the brain's ability to form new neural connections, allows the neurons to compensate for injury and disease and to adjust their activities in response to new situations or changes in their environment.

[9] = tested on: SH-SY5Y cells; assay: Protein carbonyl assay (2,4-DNPH) in H2O2-stressed cells; format: cell-based, human; details: 100 μM H2O2 24 h, 10 and 25 μM compound
Procedure: To generate intracellular aldehydes, the inventors treated human neuroblastoma cell line (SH-SY5Y) with 100 μM hydrogen peroxide (H2O2) for 24 h. Carbonyl groups were quantified using 2,4-DNPH (dinitrophenylhydrazine) assay.
Protein carbonyl Assay. Protein carbonyls were measured using a commercially available kit (MAK094; Sigma-Aldrich, St. Louis, Mo.). Cells were first lysed in lysis buffer provided by the kit.
Following centrifugation, 100 μL of supernatant was added to 10 μL of 10% […] solution, was incubated at room temperature for 10 min and re-centrifuged to remove interfering nucleic acids. Carbonyl content of supernatant was determined by adding 2, 4-dinatrophenylhydrazine followed by detection of dinitrophenyl hydrazine adduct at 375 nm in a 96 well plate reader. The protein content of each sample was determined using a bicinchoninic acid (BCA) assay, Thermo Fischer, Waltham, Mass.).

[10] = tested on: C. elegans; assay: Rotenone stress test in worms; format: in vivo
From the text: The inventors again used rotenone to elicit PD-like changes.
Rotenone stress test. […] After 3 days young adult worms were transferred to fresh NGM plates either preloaded with rotenone alone or rotenone plus any of the abovementioned compounds. Every worm was subjected to prodding test with a worm pick every day. A worm was scored as dead when not responding to three repeated proddings. Survival curve was plotted using Prism 7.

Structure (SMILES): NNc1nncc2ccccc12 [Hydralazine]
- concentration of O2− ions in aggregate-positive KD cells ([1]; Nrf2 knockdown): No significant change
- concentration of superoxide ([1]; aggregate-positive and -negative cells, 24 h): decreased in a dose-dependent manner
- autophagic flux (autophagosomes, autophagolysosomes) [2]: induction of autophagic flux
- EGFP-HD103Q poly Q aggregates [3]: disappearance of higher order poly Q aggregates
- ARE binding elevation ([4]; SH-SY5Y): 2 fold
- luciferase activity compared to untreated cells ([4]; SH-SY5Y with ARE-luciferase reporter, 24 h, both concentrations): 2.0±0.2 folds
- SKN-1/Nrf2-stress response pathway activation, IPA Z score [5]: 3.317
- poly Q aggregates (Western blot, EGFP tag) [6]: efficient removal of poly Q aggregates
- EGFP-HDQ74 aggregates (confocal) ([6]; 10 μM, 48 hours): significantly reduced
- clearance of Poly Q aggregates after 3-MA and bafilomycin ([6]; 5 mM 3-MA, 20 nM bafilomycin): abrogated
- EGFP-HDQ74 aggregates in ATG5 knock-down cells ([6]; ATG5 shRNA): failed to clear
- mitochondrial mass ([7]; 0, 10, 20 μM): sharp increase in mitochondrial mass
- increase in mt-DNA copy number ([7]; 20 μM): more than 50%
- increase of expression of neuropeptide Y [8]: 3 fold
- increase of expression of synaptotagmin [8]: ~2.5 fold
- protein carbonyls [9]: significantly reduced the carbonyl level
- protein carbonyls ([9]; listed as hydralazine): reduced protein carbonyls significantly
- protection against rotenone-induced death ([10]; 100 μM pretreatment, rotenone 50 μM): protected from rotenone; also recorded: significantly protected
- protection against rotenone in skn-1(zu135) mutant compared to N2 ([10]; skn-1(zu135)): sharply decreased
